Laboratory results from US20180271470A1, “METHODS FOR QUANTIFYING PANCREATIC BETA CELL FUNCTION AND MASS PROPERTIES WITH RADIOMANGANESE POSITRON EMISSION TOMOGRAPHY” (Wisconsin Alumni Research Foundation, priority 2017, published 2018).

How the values were obtained:
[1] = [^18F]-FDG study; cited from earlier work
[2] = mice, other studies; cited from earlier work
[3] = Ex vivo ^51Mn biodistribution by gamma counting; type: in vivo, ICR mice; details: awake I.V. bolus, gamma counting after 1 h PET
Method: (§1) All animal studies were conducted under a protocol approved by the University of Wisconsin Institutional Animal Care and Use Committee. Non-fasted healthy ICR mice (Envigo, Indianapolis, Ind.) were divided into two groups. Mice in the first group (n=2) were anaesthetized by isoflurane (4% induction, 1% maintenance), tail-vein catheters were affixed, and mice were placed on the microPET/CT bed in a prone position (Inveon, Siemens Preclinical Solutions, Knoxville, Tenn.). Dynamic PET acquisition was started and ^51Mn^2+ was administered in a rapid bolus (3.3 MBq, 200 μl, 10% 0.01 M NaOAc/90% PBS) through the tail-vein catheter. Sixty minutes of dynamic PET data were acquired following ^51Mn^2+ administration. Due to the impact of volatile anesthetics on voltage-dependent calcium channel (VDCC) activation, the second group (n=3) received an intravenous (I.V.) bolus of ^51Mn^2+ (1.6 MBq, 200 μL, 10% 0.01 M NaOAc/90% PBS) while awake. 60 minutes post-injection mice were anaesthetized by isoflurane and a 10 minute static PET scan acquired. Following imaging, mice were immediately sacrificed by CO2 asphyxiation, and organs were extracted. Ex vivo biodistribution measurements were performed by gamma counting (Wizard 2480, PerkinElmer, Waltham, Mass.).

[4] = Dynamic PET of ^51Mn^2+ rapid IV bolus under isoflurane; type: in vivo, ICR mice
Method: as §1
Dynamic PET data were binned into […] (12×5 s, 6×10 s, 6×30 s, 6×150 s, 6×300 s) and frames were reconstructed using non-scatter-corrected 3D ordered-subset expectation maximization followed by maximum a posteriori reconstruction (OSEM3D/MAP). Static PET data were reconstructed into a single frame by OSEM3D/MAP.

[5] = Static PET of ^51Mn^2+ injected in awake mice; type: in vivo, ICR mice; details: I.V. bolus non-anaesthetized, n=3, PET 60 minutes post-injection
Method: as §1, with “Mass.). […]” for “Mass.).”

[6] = OLINDA dosimetry calculations for Mn-51 and daughter Cr-51; parameters: species or system human; details: OLINDA input
Method: Due to the rapid blood clearance of Mn^2+, OLINDA (Organ Level INternal Dose Assessment) dosimetry calculations were performed assuming instant compartment localization with organ activity fractions equal to those measured by ex vivo biodistribution herein. Based on the previously measured lengthy organ residence times of Mn^2+, it was also assumed that the effective organ clearance half-life (Ter) was equal to the radioactive half-life of Mn-51 (t1/2: 45.6 min). It was also assumed that Mn-51 injections were 100% radionuclidically pure. In regards to the daughter isotope, Cr-51 (t1/2: 27.7 d), it was assumed that the activity remained in same organ compartments as the parent Mn-51 biodistribution without biological clearance. Standard radiation weighting factors were used (γ=1, β=1). Based on these assumptions, effective dose (ED) and effective dose equivalent (EDE) (units of mSv/MBq) were calculated for a standard adult male and female.

In the case of OC[C@H]1OC(O)[C@H]([18F])[C@@H](O)[C@@H]1O (some centres unmarked) [[^18F]-FDG], the “average dose for a study” value [1] is listed as 14.1 mSv.

In the case of [63Zn+2] [^63Zn^2+], the pancreatic uptake [2] is given as “significant”.

With ^51MnCl2 [Mn-51] the “Mn-51 uptake in heart, ex vivo biodistribution” value [3] was 5.6±1.8 SUV, the “Mn-51 uptake in kidneys, ex vivo biodistribution” value [3] was 9.2±0.7 SUV and the “Mn-51 uptake in pancreas, ex vivo biodistribution” value [3] was 7.0±1.3 SUV. The “kidney uptake, anaesthetized dynamic PET subjects” value ([4]; I.V. bolus under isoflurane, n=2) was 13.7±2.6 SUV, the “duration of initial distribution” value ([4]; rapid IV bolus, dynamic PET) was < 1 min and the “heart blood-pool clearance half-life” value ([4]; rapid IV bolus, heart TAC 0.375 to 3.25 minutes post-injection) was 7.7 ± 0.7 s. The “kidney uptake, static PET subjects” value [5] was 7.7±1.1 SUV, the “Number of disintigrations, Total Body” value ([6]; Total Body) was 8.70E−01 MBq-h/MBq and the “Number of disintigrations, Adrenals” value ([6]; source organ Adrenals) was 0.00E+00 MBq-h/MBq. For the same molecule, the “Number of disintigrations, Brain” value ([6]; source organ Brain) was 4.43E−03 MBq-h/MBq, the “Number of disintigrations, Breasts” value ([6]; source organ Breasts) was 0.00E+00 MBq-h/MBq and the “Number of disintigrations, Cortical Bone” value ([6]; source organ Cortical Bone) was 8.40E−04 MBq-h/MBq. The “Number of disintigrations, Gallbladder Contents” value ([6]; source organ Gallbladder Contents) was 0.00E+00 MBq-h/MBq, the “Number of disintigrations, Heart Contents” value ([6]; source organ Heart Contents) was 0.00E+00 MBq-h/MBq and the “Number of disintigrations, Heart Wall” value ([6]; source organ Heart Wall) was 2.37E−02 MBq-h/MBq. For the same molecule, the “Number of disintigrations, Kidneys” value ([6]; source organ Kidneys) was 6.91E−02 MBq-h/MBq, the “Number of disintigrations, LLI” value ([6]; source organ LLI) was 0.00E+00 MBq-h/MBq and the “Number of disintigrations, Liver” value ([6]; source organ Liver) was 6.30E−02 MBq-h/MBq. For the same molecule, the “Number of disintigrations, Lungs” value ([6]; source organ Lungs) was 1.68E−02 MBq-h/MBq, the “Number of disintigrations, Muscle” value ([6]; source organ Muscle) was 2.18E−03 MBq-h/MBq and the “Number of disintigrations, Ovaries” value ([6]; source organ Ovaries) was 0.00E+00 MBq-h/MBq. The “Number of disintigrations, Pancreas” value ([6]; source organ Pancreas) was 4.11E−02 MBq-h/MBq, the “Number of disintigrations, Red Marrow” value ([6]; source organ Red Marrow) was 0.00E+00 MBq-h/MBq and the “Number of disintigrations, Small Intestine” value ([6]; source organ Small Intestine) was 0.00E+00 MBq-h/MBq. The “Number of disintigrations, Spleen” value ([6]; source organ Spleen) was 9.16E−03 MBq-h/MBq, the “Number of disintigrations, Stomach” value ([6]; source organ Stomach) was 0.00E+00 MBq-h/MBq and the “Number of disintigrations, Testes” value ([6]; source organ Testes) was 0.00E+00 MBq-h/MBq. The “Number of disintigrations, Thymus” value ([6]; source organ Thymus) was 0.00E+00 MBq-h/MBq, the “Number of disintigrations, Thyroid” value ([6]; source organ Thyroid) was 0.00E+00 MBq-h/MBq and the “Number of disintigrations, Trabecular Bone” value ([6]; source organ Trabecular Bone) was 0.00E+00 MBq-h/MBq. The “Number of disintigrations, ULI” value ([6]; source organ ULI) was 6.42E−03 MBq-h/MBq, the “Number of disintigrations, Urinary Bladder Contents” value ([6]; source organ Urinary Bladder Contents) was 0.00E+00 MBq-h/MBq and the “Number of disintigrations, Uterus/Uterine Wall” value ([6]; source organ Uterus/Uterine Wall) was 0.00E+00 MBq-h/MBq.
